Laboratory results reported in patent publication US8962576B2, “Compositions and method for improving endothelial function and cardiovascular health” (Natreon, Inc., priority 2012, dated 2015).

Columns and labels:
Assay type in all cases: in vivo, human
[1] = test system: platelet aggregation; assay: Inhibition of platelet aggregation using ADP as aggregant, study (c) subset (i); settings: Clopidogrel 75 mg single dose Day 1, CAPROS 500 mg BD multiple dose Day 10, combination Day 11, n = 10
Method: The platelet aggregation was determined by the following procedure using Wheecon chronologue dual channel platelet aggregometer (Wheecon Instruments Pvt. Ltd., Chemai, Tamilnadu, India). The percentage decrease in platelet aggregation was recorded at baseline and 3 hours post treatment. Approximately 9 ml of blood sample was collected in a 10 ml plastic test tube containing 1 ml of 3.8% Sodium Citrate from the cubital vein of the subject at baseline and after 3 hours post treatment in all the groups. The test was performed immediately within a time period of one and half hours from collection. The samples were centrifuged at 800 rpm for 15 minutes to obtain a platelet-rich plasma. […] The readings were recorded at baseline and after treatment with ADP. The percentage aggregation at baseline and the percentage inhibition of platelet aggregation on post treatment with all the four treatments was calculated. […]
The effect of CAPROS® 500 mg BD (multiple dose study), Clopidogrel 75 mg (single dose study) and Capros 500 mg+Clopidogrel 75 mg on platelet function was determined by the following procedure using the dual channel platelet aggregometer instrument, as described above. The percentage aggregation at baseline and the percentage inhibition of platelet aggregation on post treatment with all the three treatments was calculated.

[2] = test system: Type 2 Diabetic Subjects; assay: Bleeding time, Duke's Method, study (c) subset (i); settings: Table XIV-A, n = 10
Method: Bleeding Time: Bleeding time in seconds was recorded at baseline and at day 10, after 4 hrs post treatment in all the treatment groups by Duke's Method. Normal Range: 60-180 Sec.

[3] = test system: Type 2 Diabetic Subjects; assay: Clotting time, Capillary Tube Method, study (c) subset (i); settings: Table XIV-B, n = 10
Method: Clotting Time: Clotting time in seconds was recorded at baseline and at day 10, after 4 hrs post treatment in all the treatment groups by Capillary Tube Method. Normal Range-300-480 Sec.

[4] = 4th Hr Post treatment, Clopidogrel 75 mg Day 1, CAPROS 500 mg BD Day 10, combination Day 11
[5] = Baseline, Clopidogrel 75 mg single dose, CAPROS 500 mg BD multiple dose, combination

In the case of `COC(=O)[C@H](c1ccccc1Cl)N1CCc2sccc2C1` [CLOPIDOGREL, Clopidogrel], the “inhibition of platelet aggregation, Mean” value [1] is reported as 47.40%, the “Bleeding Time, Mean” value [2, 4] is reported as 97.30 s and the “Bleeding Time, Mean” value [2, 5] is reported as 84.40 s. For the same compound, the “Bleeding Time, Mean” value [3, 4] was 249.5 s and the “Bleeding Time, Mean” value [3, 5] was 207.5 s.
